Experimental data from patent US11083725B2 (priority 2014, dated 2021).

Tested on: NHBE cells
Test: Biolog metabolic array: substrate use by NHBE cells with or without CA09 infection
Type: cell-based, human
[1] = Control (uninfected) NHBE cells
[2] = Virus (CA09-infected NHBE cells, MOI 1)
[3] = Virus: CA09-infected NHBE cells, MOI 1, Biolog PMM2

O=C(CO)[C@@H](O)[C@H](O)[C@@H](O)CO [L-Sorbose]
590 nm absorbance normalized to zero hour (substrate use), 0 hr [1]: 1.00 | 590 nm absorbance normalized to zero hour (substrate use), 1 hr [1]: 1.57 | 590 nm absorbance normalized to zero hour (substrate use), 2 hr [1]: 2.05 | 590 nm absorbance normalized to zero hour (substrate use), 3 hr [1]: 2.28 | 590 nm absorbance normalized to zero hour (substrate use), 4 hr [1]: 2.38 | 590 nm absorbance normalized to zero hour (substrate use), 6 hr [1]: 4.12 | 590 nm absorbance normalized to zero hour (substrate use), 8 hr [1]: 2.81 | 590 nm absorbance normalized to zero hour (substrate use), 9 hr [1]: 2.80 | 590 nm absorbance normalized to zero hour (substrate use), 10 hr [1]: 3.02 | 590 nm absorbance normalized to zero hour (substrate use), 11 hr [1]: 2.98 | Substrate use, 590 nm absorbance normalized to zero hour, 0 hr (Control (uninfected) NHBE cells, Biolog PMM2, 0 hr): 1.00 | Substrate use, 590 nm absorbance normalized to zero hour, 1 hr (Control (uninfected) NHBE cells, Biolog PMM2, 1 hr): 1.57 | Substrate use, 590 nm absorbance normalized to zero hour, 5 hr (Control (uninfected) NHBE cells, Biolog PMM2, 5 hr): 2.79 | Substrate use, 590 nm absorbance normalized to zero hour, 7 hr (Control (uninfected) NHBE cells, Biolog PMM2, 7 hr): 2.84 | 590 nm absorbance normalized to zero hour (substrate use), 0 hr [2]: 1.00 | 590 nm absorbance normalized to zero hour (substrate use), 1 hr [2]: 0.18 | 590 nm absorbance normalized to zero hour (substrate use), 2 hr [2]: 0.23 | 590 nm absorbance normalized to zero hour (substrate use), 3 hr [2]: 0.26 | 590 nm absorbance normalized to zero hour (substrate use), 4 hr [2]: 0.28 | 590 nm absorbance normalized to zero hour (substrate use), 5 hr [2]: 0.32 | 590 nm absorbance normalized to zero hour (substrate use), 6 hr [2]: 0.34 | 590 nm absorbance normalized to zero hour (substrate use), 7 hr [2]: 0.37 | 590 nm absorbance normalized to zero hour (substrate use), 8 hr [2]: 0.38 | 590 nm absorbance normalized to zero hour (substrate use), 9 hr [2]: 0.41 | 590 nm absorbance normalized to zero hour (substrate use), 10 hr [2]: 0.41 | 590 nm absorbance normalized to zero hour (substrate use), 11 hr [2]: 0.48 | 590 nm absorbance normalized to zero hour (substrate use), 0 hr [3]: 1.00 | 590 nm absorbance normalized to zero hour (substrate use), 1 hr [3]: 0.18 | 590 nm absorbance normalized to zero hour (substrate use), 2 hr [3]: 0.23 | 590 nm absorbance normalized to zero hour (substrate use), 3 hr [3]: 0.26 | 590 nm absorbance normalized to zero hour (substrate use), 4 hr [3]: 0.28 | 590 nm absorbance normalized to zero hour (substrate use), 5 hr [3]: 0.32 | 590 nm absorbance normalized to zero hour (substrate use), 6 hr [3]: 0.34 | 590 nm absorbance normalized to zero hour (substrate use), 7 hr [3]: 0.37 | 590 nm absorbance normalized to zero hour (substrate use), 8 hr [3]: 0.38 | 590 nm absorbance normalized to zero hour (substrate use), 9 hr [3]: 0.41 | 590 nm absorbance normalized to zero hour (substrate use), 10 hr [3]: 0.41 | 590 nm absorbance normalized to zero hour (substrate use), 11 hr [3]: 0.48
